Source: paper PMC9030254, “Target Hopping from Protein Kinases to PXR: Identification of Small-Molecule Protein Kinase Inhibitors as Selective Modulators of Pregnane X Receptor from TüKIC Library” (Cells, 2022)

Columns and labels:
Assay in all cases: Kinase profiling
Assay type in all cases: biochemical
[1] = target: T1, JAK1 (Homo sapiens, UniProt P23458)
T1 construct: purchased ProQinase (Freiburg, Germany)
Method: (§1) The analysis was performed by ProQinase (Freiburg, Germany).

[2] = target: T2, MARK1 (Homo sapiens, UniProt Q9P0L2)
T2 construct: purchased ProQinase (Freiburg, Germany)
Method: as §1

[3] = target: T3, IRAK4 (Homo sapiens, UniProt Q9NWZ3)
T3 construct: purchased ProQinase (Freiburg, Germany)
T3 sequence (Q9NWZ3 1-460): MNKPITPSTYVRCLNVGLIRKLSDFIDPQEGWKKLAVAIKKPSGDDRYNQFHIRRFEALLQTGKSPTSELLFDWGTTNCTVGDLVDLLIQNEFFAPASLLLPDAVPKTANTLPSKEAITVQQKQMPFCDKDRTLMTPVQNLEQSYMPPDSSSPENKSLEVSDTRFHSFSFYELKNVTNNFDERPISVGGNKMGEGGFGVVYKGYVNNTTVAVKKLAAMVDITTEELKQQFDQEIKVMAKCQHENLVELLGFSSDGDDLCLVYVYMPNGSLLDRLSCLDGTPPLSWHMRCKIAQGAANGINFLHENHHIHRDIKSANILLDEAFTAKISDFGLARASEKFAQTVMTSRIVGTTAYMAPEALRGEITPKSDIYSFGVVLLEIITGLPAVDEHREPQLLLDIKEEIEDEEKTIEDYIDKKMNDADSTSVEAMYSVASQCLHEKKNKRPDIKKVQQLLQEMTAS
Method: as §1

[4] = target: T4, MERTK (Homo sapiens, UniProt Q12866)
T4 construct: purchased ProQinase (Freiburg, Germany)
T4 sequence (Q12866 21-999): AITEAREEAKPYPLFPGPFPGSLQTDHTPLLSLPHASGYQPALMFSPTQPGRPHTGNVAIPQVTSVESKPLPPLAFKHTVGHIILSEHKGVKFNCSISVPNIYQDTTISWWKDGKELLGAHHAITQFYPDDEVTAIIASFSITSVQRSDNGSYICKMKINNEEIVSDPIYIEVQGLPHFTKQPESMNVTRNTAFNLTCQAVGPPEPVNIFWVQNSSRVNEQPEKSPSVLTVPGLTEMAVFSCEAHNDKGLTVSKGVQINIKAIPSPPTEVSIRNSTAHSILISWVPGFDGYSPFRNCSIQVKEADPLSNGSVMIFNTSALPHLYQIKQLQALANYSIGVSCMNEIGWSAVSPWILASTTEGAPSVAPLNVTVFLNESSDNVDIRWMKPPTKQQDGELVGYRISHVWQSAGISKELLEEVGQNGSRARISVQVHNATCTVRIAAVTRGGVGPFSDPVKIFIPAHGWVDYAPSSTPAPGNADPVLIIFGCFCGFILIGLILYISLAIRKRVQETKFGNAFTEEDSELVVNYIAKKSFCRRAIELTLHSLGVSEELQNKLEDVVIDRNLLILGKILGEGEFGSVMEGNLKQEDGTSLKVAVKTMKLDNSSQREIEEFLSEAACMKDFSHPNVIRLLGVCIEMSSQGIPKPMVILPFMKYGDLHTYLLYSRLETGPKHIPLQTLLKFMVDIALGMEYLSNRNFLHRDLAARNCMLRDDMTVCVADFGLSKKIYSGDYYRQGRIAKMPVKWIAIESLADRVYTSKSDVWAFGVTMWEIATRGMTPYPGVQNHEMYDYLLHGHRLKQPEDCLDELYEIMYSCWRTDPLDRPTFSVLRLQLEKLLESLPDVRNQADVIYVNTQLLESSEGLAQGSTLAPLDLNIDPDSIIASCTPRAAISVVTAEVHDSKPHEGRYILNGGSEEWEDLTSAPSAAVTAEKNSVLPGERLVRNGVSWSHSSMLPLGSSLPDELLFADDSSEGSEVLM
Method: as §1

[5] = target: T5, FGFR4 (Homo sapiens, UniProt P22455)
T5 construct: purchased ProQinase (Freiburg, Germany)
Method: as §1

[6] = target: T6, ERK1 (Homo sapiens, UniProt P27361)
T6 construct: purchased ProQinase (Freiburg, Germany)
Method: as §1

[7] = target: T7, CDK7/CycH/MAT1 (Homo sapiens, UniProt P50613)
T7 construct: purchased ProQinase (Freiburg, Germany)
Method: as §1

[8] = target: T8, PKCiota (Homo sapiens, UniProt P41743)
T8 construct: purchased ProQinase (Freiburg, Germany)
T8 sequence (P41743 1-596): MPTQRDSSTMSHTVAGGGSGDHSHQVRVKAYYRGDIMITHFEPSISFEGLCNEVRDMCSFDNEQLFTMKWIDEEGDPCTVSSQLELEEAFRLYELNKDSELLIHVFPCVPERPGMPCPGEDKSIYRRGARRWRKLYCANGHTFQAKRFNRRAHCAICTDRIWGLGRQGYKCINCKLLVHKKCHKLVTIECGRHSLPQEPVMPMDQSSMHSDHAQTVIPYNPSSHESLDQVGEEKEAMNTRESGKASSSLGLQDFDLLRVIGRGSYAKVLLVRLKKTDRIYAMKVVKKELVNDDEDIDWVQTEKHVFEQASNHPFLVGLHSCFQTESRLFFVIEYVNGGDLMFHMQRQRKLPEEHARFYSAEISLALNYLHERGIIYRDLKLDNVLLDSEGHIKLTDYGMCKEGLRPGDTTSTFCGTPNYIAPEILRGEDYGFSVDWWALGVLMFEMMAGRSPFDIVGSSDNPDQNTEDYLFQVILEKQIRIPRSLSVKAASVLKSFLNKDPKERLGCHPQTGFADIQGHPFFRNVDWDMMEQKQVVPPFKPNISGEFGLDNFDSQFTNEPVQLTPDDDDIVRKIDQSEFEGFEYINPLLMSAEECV
Method: as §1

[9] = target: T9, PRK1 (Homo sapiens, UniProt Q16512)
T9 construct: purchased ProQinase (Freiburg, Germany)
Method: as §1

[10] = target: T10, CAMK2G (Homo sapiens, UniProt Q13555)
T10 construct: purchased ProQinase (Freiburg, Germany)
Method: as §1

[11] = target: T11, NEK4 (Homo sapiens, UniProt P51957)
T11 construct: purchased ProQinase (Freiburg, Germany)
Method: as §1

[12] = target: T12, VEGFR2 (Homo sapiens, UniProt P35968)
T12 construct: purchased ProQinase (Freiburg, Germany)
Method: as §1

[13] = target: T13, HIPK1 (Homo sapiens, UniProt Q86Z02)
T13 construct: purchased ProQinase (Freiburg, Germany)
Method: as §1

T12 sequence (P35968 20-1356): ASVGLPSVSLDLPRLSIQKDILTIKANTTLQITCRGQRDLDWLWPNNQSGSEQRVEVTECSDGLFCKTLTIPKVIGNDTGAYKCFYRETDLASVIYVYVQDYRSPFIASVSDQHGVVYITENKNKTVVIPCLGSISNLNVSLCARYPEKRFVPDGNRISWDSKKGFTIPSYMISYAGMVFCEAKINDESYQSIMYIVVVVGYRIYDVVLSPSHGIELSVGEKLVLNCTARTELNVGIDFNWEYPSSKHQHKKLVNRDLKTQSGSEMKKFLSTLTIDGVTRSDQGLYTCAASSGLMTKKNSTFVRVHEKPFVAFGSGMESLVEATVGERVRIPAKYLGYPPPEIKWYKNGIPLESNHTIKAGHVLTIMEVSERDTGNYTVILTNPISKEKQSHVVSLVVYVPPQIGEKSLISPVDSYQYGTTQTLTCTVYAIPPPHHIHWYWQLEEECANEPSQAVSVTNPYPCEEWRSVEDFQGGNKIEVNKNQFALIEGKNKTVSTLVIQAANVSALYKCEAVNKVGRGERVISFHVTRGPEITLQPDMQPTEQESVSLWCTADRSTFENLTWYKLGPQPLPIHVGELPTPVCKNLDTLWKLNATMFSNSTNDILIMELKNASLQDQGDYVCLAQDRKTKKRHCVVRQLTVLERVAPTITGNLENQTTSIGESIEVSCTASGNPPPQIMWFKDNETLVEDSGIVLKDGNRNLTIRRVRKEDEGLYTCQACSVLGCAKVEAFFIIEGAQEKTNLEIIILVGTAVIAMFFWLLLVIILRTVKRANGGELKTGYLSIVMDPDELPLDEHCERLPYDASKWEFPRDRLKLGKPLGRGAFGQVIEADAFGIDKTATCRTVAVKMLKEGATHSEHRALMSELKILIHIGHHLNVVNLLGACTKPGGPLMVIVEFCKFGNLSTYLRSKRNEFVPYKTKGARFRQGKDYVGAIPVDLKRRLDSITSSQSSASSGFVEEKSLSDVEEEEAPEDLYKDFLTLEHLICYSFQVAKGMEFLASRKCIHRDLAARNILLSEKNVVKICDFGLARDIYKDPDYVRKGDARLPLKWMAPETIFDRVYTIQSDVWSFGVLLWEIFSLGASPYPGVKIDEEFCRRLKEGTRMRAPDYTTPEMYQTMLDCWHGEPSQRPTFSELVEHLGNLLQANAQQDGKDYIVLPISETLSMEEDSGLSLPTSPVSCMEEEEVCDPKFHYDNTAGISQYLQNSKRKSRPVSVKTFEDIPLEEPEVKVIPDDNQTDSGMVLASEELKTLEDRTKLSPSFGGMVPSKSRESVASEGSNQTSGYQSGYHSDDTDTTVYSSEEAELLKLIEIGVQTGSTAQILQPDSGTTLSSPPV
T5 sequence (P22455 22-802): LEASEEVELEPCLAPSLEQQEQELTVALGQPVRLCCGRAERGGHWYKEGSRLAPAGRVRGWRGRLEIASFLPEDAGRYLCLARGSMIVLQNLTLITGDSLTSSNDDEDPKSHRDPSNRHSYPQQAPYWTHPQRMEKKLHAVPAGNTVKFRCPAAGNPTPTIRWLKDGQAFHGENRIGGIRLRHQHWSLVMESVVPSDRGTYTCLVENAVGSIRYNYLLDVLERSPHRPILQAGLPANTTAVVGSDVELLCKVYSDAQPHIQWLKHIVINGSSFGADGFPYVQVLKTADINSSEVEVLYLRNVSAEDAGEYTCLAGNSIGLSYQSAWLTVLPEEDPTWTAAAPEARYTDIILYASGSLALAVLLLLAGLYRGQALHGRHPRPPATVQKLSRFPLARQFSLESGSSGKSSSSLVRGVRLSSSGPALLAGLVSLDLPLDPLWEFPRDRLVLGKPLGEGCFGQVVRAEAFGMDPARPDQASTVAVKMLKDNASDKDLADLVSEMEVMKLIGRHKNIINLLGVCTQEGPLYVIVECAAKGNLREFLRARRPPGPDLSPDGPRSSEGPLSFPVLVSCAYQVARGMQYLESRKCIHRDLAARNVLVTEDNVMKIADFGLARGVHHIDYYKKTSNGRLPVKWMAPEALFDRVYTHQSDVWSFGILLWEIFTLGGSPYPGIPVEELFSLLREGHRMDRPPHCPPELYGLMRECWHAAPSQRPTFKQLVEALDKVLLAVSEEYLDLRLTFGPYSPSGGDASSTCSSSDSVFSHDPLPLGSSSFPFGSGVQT
T10 sequence (Q13555 whole entry): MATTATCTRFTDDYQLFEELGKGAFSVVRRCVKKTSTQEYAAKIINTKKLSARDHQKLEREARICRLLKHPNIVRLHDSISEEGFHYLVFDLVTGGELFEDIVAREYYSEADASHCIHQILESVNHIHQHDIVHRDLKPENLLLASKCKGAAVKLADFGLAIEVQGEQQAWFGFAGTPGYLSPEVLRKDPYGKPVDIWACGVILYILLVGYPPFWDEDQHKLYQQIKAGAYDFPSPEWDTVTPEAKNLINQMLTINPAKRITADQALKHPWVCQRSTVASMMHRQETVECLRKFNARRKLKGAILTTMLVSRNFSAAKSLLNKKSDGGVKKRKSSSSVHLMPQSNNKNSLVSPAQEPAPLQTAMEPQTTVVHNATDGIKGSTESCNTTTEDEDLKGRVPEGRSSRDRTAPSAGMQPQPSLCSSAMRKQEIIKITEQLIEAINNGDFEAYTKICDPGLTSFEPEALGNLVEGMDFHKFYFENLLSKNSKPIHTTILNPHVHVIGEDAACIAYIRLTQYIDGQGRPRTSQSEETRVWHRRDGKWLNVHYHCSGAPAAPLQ
T7 sequence (P50613 whole entry): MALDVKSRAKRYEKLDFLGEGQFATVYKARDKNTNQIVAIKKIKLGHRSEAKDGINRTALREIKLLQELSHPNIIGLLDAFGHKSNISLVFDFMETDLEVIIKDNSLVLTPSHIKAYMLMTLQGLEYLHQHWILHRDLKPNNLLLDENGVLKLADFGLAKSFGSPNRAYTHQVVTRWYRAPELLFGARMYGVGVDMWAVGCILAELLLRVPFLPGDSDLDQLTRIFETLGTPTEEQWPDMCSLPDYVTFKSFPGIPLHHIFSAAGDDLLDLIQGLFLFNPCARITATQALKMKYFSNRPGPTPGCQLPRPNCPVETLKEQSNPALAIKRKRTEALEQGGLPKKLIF
T7 sequence (P51946 whole entry partner): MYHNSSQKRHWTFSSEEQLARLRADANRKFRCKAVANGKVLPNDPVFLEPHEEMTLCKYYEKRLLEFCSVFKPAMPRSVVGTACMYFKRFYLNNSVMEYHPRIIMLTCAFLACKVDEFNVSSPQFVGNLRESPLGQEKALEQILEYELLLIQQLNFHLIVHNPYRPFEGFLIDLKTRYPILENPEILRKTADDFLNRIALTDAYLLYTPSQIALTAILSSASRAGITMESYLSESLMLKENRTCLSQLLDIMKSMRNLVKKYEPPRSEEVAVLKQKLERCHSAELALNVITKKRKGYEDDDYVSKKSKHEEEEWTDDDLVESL
T7 sequence (P51948 whole entry partner): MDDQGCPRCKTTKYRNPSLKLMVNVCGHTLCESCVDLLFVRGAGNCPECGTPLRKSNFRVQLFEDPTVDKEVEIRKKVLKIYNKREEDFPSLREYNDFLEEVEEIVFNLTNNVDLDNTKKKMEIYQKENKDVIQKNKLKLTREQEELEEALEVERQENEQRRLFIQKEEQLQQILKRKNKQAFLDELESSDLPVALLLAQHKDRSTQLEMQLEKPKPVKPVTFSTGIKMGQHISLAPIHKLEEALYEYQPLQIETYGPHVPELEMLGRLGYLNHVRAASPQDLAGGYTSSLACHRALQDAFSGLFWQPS
T11 sequence (P51957 whole entry): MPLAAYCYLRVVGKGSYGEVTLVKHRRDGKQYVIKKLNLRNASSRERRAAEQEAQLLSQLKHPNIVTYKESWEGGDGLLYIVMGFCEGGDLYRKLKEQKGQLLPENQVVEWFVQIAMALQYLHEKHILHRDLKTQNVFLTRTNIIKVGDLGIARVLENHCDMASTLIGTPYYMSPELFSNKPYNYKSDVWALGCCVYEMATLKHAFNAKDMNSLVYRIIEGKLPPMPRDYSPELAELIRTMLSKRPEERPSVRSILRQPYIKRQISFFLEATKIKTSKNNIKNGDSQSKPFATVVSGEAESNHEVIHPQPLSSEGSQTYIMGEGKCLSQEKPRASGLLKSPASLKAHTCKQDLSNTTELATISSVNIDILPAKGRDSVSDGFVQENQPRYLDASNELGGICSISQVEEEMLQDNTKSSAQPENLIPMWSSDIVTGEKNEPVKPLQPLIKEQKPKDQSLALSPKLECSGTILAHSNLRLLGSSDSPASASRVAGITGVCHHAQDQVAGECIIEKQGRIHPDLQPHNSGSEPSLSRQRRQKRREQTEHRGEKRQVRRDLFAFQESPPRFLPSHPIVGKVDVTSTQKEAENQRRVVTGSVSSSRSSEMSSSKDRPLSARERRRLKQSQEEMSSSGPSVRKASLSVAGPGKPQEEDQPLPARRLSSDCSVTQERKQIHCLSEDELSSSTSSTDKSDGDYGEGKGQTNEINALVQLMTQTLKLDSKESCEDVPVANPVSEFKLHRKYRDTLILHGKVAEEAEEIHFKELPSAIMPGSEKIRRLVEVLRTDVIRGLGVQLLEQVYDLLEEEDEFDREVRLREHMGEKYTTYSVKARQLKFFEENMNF
T6 sequence (P27361 whole entry): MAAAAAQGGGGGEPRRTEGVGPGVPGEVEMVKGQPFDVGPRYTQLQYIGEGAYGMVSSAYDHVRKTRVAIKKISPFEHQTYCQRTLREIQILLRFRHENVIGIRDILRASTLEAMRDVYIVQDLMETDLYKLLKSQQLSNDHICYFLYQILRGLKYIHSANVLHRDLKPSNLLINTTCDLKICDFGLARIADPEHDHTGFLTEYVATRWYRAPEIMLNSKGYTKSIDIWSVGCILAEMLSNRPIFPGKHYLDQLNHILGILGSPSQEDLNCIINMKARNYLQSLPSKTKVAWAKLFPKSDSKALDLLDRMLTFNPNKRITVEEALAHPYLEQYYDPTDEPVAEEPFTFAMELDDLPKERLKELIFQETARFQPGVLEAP

Row | Structure (SMILES) | Residual activity ([1]; 1.0E-05 M) | Residual activity ([1]; 1.0E-06 M) | Residual activity ([2]; 1.0E-05 M) | Residual activity ([2]; 1.0E-06 M) | Residual activity ([3]; 1.0E-05 M) | Residual activity ([3]; 1.0E-06 M) | Residual activity ([4]; 1.0E-05 M) | Residual activity ([4]; 1.0E-06 M) | Residual activity ([5]; 1.0E-05 M) | Residual activity ([5]; 1.0E-06 M) | Residual activity ([6]; 1.0E-05 M) | Residual activity ([6]; 1.0E-06 M) | Residual activity ([7]; 1.0E-05 M) | Residual activity ([7]; 1.0E-06 M) | Residual activity ([8]; 1.0E-05 M) | Residual activity ([8]; 1.0E-06 M) | Residual activity ([9]; 1.0E-05 M) | Residual activity ([9]; 1.0E-06 M) | Residual activity ([10]; 1.0E-05 M) | Residual activity ([10]; 1.0E-06 M) | further results
1 | O=C(Cc1ccccc1)Nc1ccc(F)c(Nc2ccc3c(c2)CCCCC3=O)c1 [Compound 100] | 85 % of control | 88 % of control | 90 % of control | 91 % of control | 100 % of control | 97 % of control | 73 % of control | 103 % of control | 67 % of control | 96 % of control | 99 % of control | 99 % of control | 83 % of control | 94 % of control | 71 % of control | 94 % of control | 101 % of control | 112 % of control | 107 % of control | 105 % of control | Residual activity ([11]; 1.0E-05 M): 81 % of control; Residual activity ([11]; 1.0E-06 M): 102 % of control; Residual activity ([12]; 1.0E-05 M): 77 % of control; Residual activity ([12]; 1.0E-06 M): 98 % of control; Residual activity ([13]; 1.0E-05 M): 91 % of control; Residual activity ([13]; 1.0E-06 M): 100 % of control
2 | O=C(Nc1ccc(F)c(Nc2ccc3c(c2)CCCCC3=O)c1)c1cccc(F)c1 [Compound 109] | 88 % of control | 77 % of control | 99 % of control | 87 % of control | 93 % of control | 92 % of control | 85 % of control | 101 % of control | 79 % of control | 90 % of control | 102 % of control | 100 % of control | 92 % of control | 89 % of control | 77 % of control | 82 % of control | 101 % of control | 94 % of control | 111 % of control | 109 % of control | Residual activity ([11]; 1.0E-05 M): 94 % of control; Residual activity ([11]; 1.0E-06 M): 98 % of control; Residual activity ([12]; 1.0E-05 M): 79 % of control; Residual activity ([12]; 1.0E-06 M): 84 % of control; Residual activity ([13]; 1.0E-05 M): 93 % of control; Residual activity ([13]; 1.0E-06 M): 90 % of control
